According to US20090291938A1 (TAKEDA PHARMACEUTICAL COMPANY LIMITED, priority 2007, published 2009):

test system: HT29 human colorectal adenocarcinoma cell line; assay: cell proliferation assay (Cell Titer-Glo luminescent cell viability assay); assay type: cell-based; details: HT-29, 72 h, read-out: pIC50 (converted)
Experimental: The cell culture and proliferation assay may be carried out as follows: the HT29 human colorectal adenocarcinoma cell line (ATCC, USA) was maintained in Dulbecco's Modified Eagle's Medium (Invitrogen, USA) supplemented with 10% fetal bovine serum (JRH, USA). The cell proliferation assay was carried out with the Cell Titer-Glo luminescent cell viability assay (Promega, USA) according to the manufacture's instruction after the 72 hr treatment of the cells in the presence of the compounds. The cell viability was shown as a percentage of DMSO treated cells.

Row | Compound | IC50 [nM]
1 | COc1cc(C(=O)O)ccc1Nc1ncc2c(n1)N(C1CCCC1)CC(C)(C)C(=O)N2C [Compound 85, 4-(9-Cyclopentyl-5,7,7-trimethyl-6-oxo-6,7,8,9-tetrahydro-5H-pyrimido[4,5-b][1,4]diazepin-2-ylamino)-3-methoxybenzoic Acid] | 3.16 to 10
2 | COc1cc(C(=O)NC2CCN(C)CC2)ccc1Nc1ncc2c(n1)N(C1CCCC1)CC(C)(C)C(=O)N2C [Compound 86, 4-(9-cyclopentyl-5,7,7-trimethyl-6-oxo-6,7,8,9-tetrahydro-5H-pyrimido[4,5-b][1,4]diazepin-2-ylamino)-3-methoxy-N-(1-methylpiperidin-4-yl)benzamide] | 3.16 to 10

same assay, conditions: HT-29, cell proliferative assay, HT29 cells, 72 hr treatment, values given as ranges, read-out: pIC50 (converted)

Row | Compound | IC50 [nM]
3 | COc1cc(C(=O)NC[C@H]2CCCNC2)ccc1Nc1ncc2c(n1)N(C1CCCC1)CCC(=O)N2C [Compound 64, (S)-4-(9-cyclopentyl-5-methyl-6-oxo-6,7,8,9-tetrahydro-5H-pyrimido[4,5-b][1,4]diazepin-2-ylamino)-3-methoxy-N-(piperidin-3-ylmethyl)benzamide] | > 10
4 | COc1cc(C(=O)NCc2ccccn2)ccc1Nc1ncc2c(n1)N(C1CCCC1)CCC(=O)N2C [Compound 69, 4-(9-cyclopentyl-5-methyl-6-oxo-6,7,8,9-tetrahydro-5H-pyrimido[4,5-b][1,4]diazepin-2-ylamino)-3-methoxy-N-(pyridin-2-ylmethyl)benzamide] | 3.16 to 10
5 | COc1cc(C(=O)NCc2cccnc2)ccc1Nc1ncc2c(n1)N(C1CCCC1)CCC(=O)N2C [Compound 70, 4-(9-cyclopentyl-5-methyl-6-oxo-6,7,8,9-tetrahydro-5H-pyrimido[4,5-b][1,4]diazepin-2-ylamino)-3-methoxy-N-(pyridin-3-ylmethyl)benzamide] | 3.16 to 10
6 | COc1cc(C(=O)NCc2ccncc2)ccc1Nc1ncc2c(n1)N(C1CCCC1)CCC(=O)N2C [Compound 71, 4-(9-cyclopentyl-5-methyl-6-oxo-6,7,8,9-tetrahydro-5H-pyrimido[4,5-b][1,4]diazepin-2-ylamino)-3-methoxy-N-(pyridin-4-ylmethyl)benzamide] | 3.16 to 10
7 | COc1cc(C(=O)NC2CCN(C(=O)C3CC3)CC2)ccc1Nc1ncc2c(n1)N(C1CCCC1)CCC(=O)N2C [Compound 73] | > 10
8 | COc1cc(C(=O)NCC2CCN(C(=O)C3CC3)CC2)ccc1Nc1ncc2c(n1)N(C1CCCC1)CCC(=O)N2C [Compound 76, 4-(9-cyclopentyl-5-methyl-6-oxo-6,7,8,9-tetrahydro-5H-pyrimido[4,5-b][1,4]diazepin-2-ylamino)-N-((1-(cyclopropanecarbonyl)piperidin-4-yl)methyl)-3-methoxybenzamide] | > 10
9 | COc1cc(C(=O)NC2CCN(C(C)C)CC2)ccc1Nc1ncc2c(n1)N(C1CCCC1)CCC(=O)N2C [Compound 77, 4-(9-cyclopentyl-5-methyl-6-oxo-6,7,8,9-tetrahydro-5H-pyrimido[4,5-b][1,4]diazepin-2-ylamino)-N-(1-isopropylpiperidin-4-yl)-3-methoxybenzamide] | > 10
10 | CCN(CC)C1CCC(NC(=O)c2ccc(Nc3ncc4c(n3)N(C3CCCC3)CCC(=O)N4C)c(OC)c2)CC1 (stereo not drawn) [Compound 79, 4-(9-cyclopentyl-5-methyl-6-oxo-6,7,8,9-tetrahydro-5H-pyrimido[4,5-b][1,4]diazepin-2-ylamino)-N-(4-(diethylamino)cyclohexyl) 3-methoxybenzamide] | > 10

The remaining lines, values ahead:

Row | IC50 [nM] | Compound
11 | 3.16 to 10 | COc1cc(C(=O)NC2CC(C)(C)N(C)C(C)(C)C2)ccc1Nc1ncc2c(n1)N(C1CCCC1)CCC(=O)N2C [Compound 80, 4-(9-cyclopentyl-5-methyl-6-oxo-6,7,8,9-tetrahydro-5H-pyrimido[4,5-b][1,4]diazepin-2-ylamino)-3-methoxy-N-(1,2,2,6,6-pentamethylpiperidin-4-yl)benzamide]
12 | 1 to 2.51 | CCN1CCC(NC(=O)c2ccc(Nc3ncc4c(n3)N(C3CCCC3)CC(C)(C)C(=O)N4C)c(OC)c2)CC1 [Compound 87, 4-(9-cyclopentyl-5,7,7-trimethyl-6-oxo-6,7,8,9-tetrahydro-5H-pyrimido[4,5-b][1,4]diazepin-2-ylamino)-N-(1-ethylpiperidin-4-yl)-3-methoxybenzamide]
13 | > 10 | COc1cc(C(=O)NCC2CCN(C)CC2)ccc1Nc1ncc2c(n1)N(C1CCCC1)CC(C)(C)C(=O)N2C [Compound 88]
14 | 3.16 to 10 | COc1cc(C(=O)NCCCN(C)C)ccc1Nc1ncc2c(n1)N(C1CCCC1)CC(C)(C)C(=O)N2C [Compound 89, 4-(9-cyclopentyl-5,7,7-trimethyl-6-oxo-6,7,8,9-tetrahydro-5H-pyrimido[4,5-b][1,4]diazepin-2-ylamino)-N-(3-(dimethylamino)propyl)-3-methoxybenzamide]
15 | 1 to 2.51 | COc1cc(C(=O)NC2CCN(C(C)=O)CC2)ccc1Nc1ncc2c(n1)N(C1CCCC1)CC(C)(C)C(=O)N2C [Compound 90, N-(1-acetylpiperidin-4-yl)-4-(9-cyclopentyl-5,7,7-trimethyl-6-oxo-6,7,8,9-tetrahydro-5H-pyrimido[4,5-b][1,4]diazepin-2-ylamino)-3-methoxybenzamide]
16 | 1 to 2.51 | COc1cc(C(=O)NC2CCN(S(C)(=O)=O)CC2)ccc1Nc1ncc2c(n1)N(C1CCCC1)CC(C)(C)C(=O)N2C [Compound 91, 4-(9-cyclopentyl-5,7,7-trimethyl-6-oxo-6,7,8,9-tetrahydro-5H-pyrimido[4,5-b][1,4]diazepin-2-ylamino)-3-methoxy-N-(1-(methylsulfonyl)piperidin-4-yl)benzamide]
17 | 3.16 to 10 | COc1cc(C(=O)NCCN(C)C)ccc1Nc1ncc2c(n1)N(C1CCCC1)CC(C)(C)C(=O)N2C [Compound 92, 4-(9-cyclopentyl-5,7,7-trimethyl-6-oxo-6,7,8,9-tetrahydro-5H-pyrimido[4,5-b][1,4]diazepin-2-ylamino)-N-(2-(dimethylamino)ethyl)-3-methoxybenzamide]
18 | 3.16 to 10 | COc1cc(C(=O)NCCN2CCCC2)ccc1Nc1ncc2c(n1)N(C1CCCC1)CC(C)(C)C(=O)N2C [Compound 93, 4-(9-cyclopentyl-5,7,7-trimethyl-6-oxo-6,7,8,9-tetrahydro-5H-pyrimido[4,5-b][1,4]diazepin-2-ylamino)-3-methoxy-N-(2-(pyrrolidin-1-yl)ethyl)benzamide]
19 | 1 to 2.51 | COc1cc(C(=O)NC2CCOCC2)ccc1Nc1ncc2c(n1)N(C1CCCC1)CC(C)(C)C(=O)N2C [Compound 94, 4-(9-cyclopentyl-5,7,7-trimethyl-6-oxo-6,7,8,9-tetrahydro-5H-pyrimido[4,5-b][1,4]diazepin-2-ylamino)-3-methoxy-N-(tetrahydro-2H-pyran-4-yl)benzamide]
20 | 1 to 2.51 | COc1cc(C(=O)NC2CN(C)C2)ccc1Nc1ncc2c(n1)N(C1CCCC1)CC(C)(C)C(=O)N2C [Compound 95, 4-(9-cyclopentyl-5,7,7-trimethyl-6-oxo-6,7,8,9-tetrahydro-5H-pyrimido[4,5-b][1,4]diazepin-2-ylamino)-3-methoxy-N-(1-methylazetidin-3-yl)benzamide]
21 | 3.16 to 10 | COc1cc(C(=O)N[C@@H]2CCN(C)C2)ccc1Nc1ncc2c(n1)N(C1CCCC1)CC(C)(C)C(=O)N2C [Compound 96, (R)-4-(9-cyclopentyl-5,7,7-trimethyl-6-oxo-6,7,8,9-tetrahydro-5H-pyrimido[4,5-b][1,4]diazepin-2-ylamino)-3-methoxy-N-(1-methylpyrrolidin-3-yl)benzamide]
